What was measured:
Assay in all cases: relative viability (nuclei count vs DMSO), 5 days (fraction); higher = more cells survive
Ispinesib + Alpelisib = compound: Cc1ccc(C(=O)N(CCCN)[C@@H](c2nc3cc(Cl)ccc3c(=O)n2Cc2ccccc2)C(C)C)cc1 [Ispinesib] + Cc1nc(NC(=O)N2CCC[C@H]2C(N)=O)sc1-c1ccnc(C(C)(C)C(F)(F)F)c1 [Alpelisib] (partner 2 µM)
Procedure, shortened: (§1)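 For relative viability, nuclei counts in treated wells were divided by those in vehicle wells. Lung cancer cell lines had been pin-tool dosed in 1536-well plates the day after seeding and cultured for 5 days, then fixed and stained in one step (final 0.05% Triton X-100, 1% formaldehyde, 1 ug/ml Hoechst) and imaged at 4×. Doses were one drug alone or a fixed anchor-drug dose plus five library-drug doses (not always all listed) in √10 steps, and values are duplicate-plate medians.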

Ispinesib + Trametinib = compound: Cc1ccc(C(=O)N(CCCN)[C@@H](c2nc3cc(Cl)ccc3c(=O)n2Cc2ccccc2)C(C)C)cc1 [Ispinesib] + CC(=O)Nc1cccc(-n2c(=O)n(C3CC3)c(=O)c3c(Nc4ccc(I)cc4F)n(C)c(=O)c(C)c32)c1 [Trametinib] (partner 0.02 µM)
Procedure, shortened: as §1

Ispinesib + Foretinib = compound: Cc1ccc(C(=O)N(CCCN)[C@@H](c2nc3cc(Cl)ccc3c(=O)n2Cc2ccccc2)C(C)C)cc1 [Ispinesib] + COc1cc2c(Oc3ccc(NC(=O)C4(C(=O)Nc5ccc(F)cc5)CC4)cc3F)ccnc2cc1OCCCN1CCOCC1 [Foretinib] (partner 0.25 µM)
Procedure, shortened: as §1

Linsitinib + Lapatinib = compound: C[C@]1(O)C[C@@H](c2nc(-c3ccc4ccc(-c5ccccc5)nc4c3)c3c(N)nccn32)C1 [Linsitinib] + CS(=O)(=O)CCNCc1ccc(-c2ccc3ncnc(Nc4ccc(OCc5cccc(F)c5)c(Cl)c4)c3c2)o1 [Lapatinib] (partner 2 µM)
Procedure, shortened: as §1

Cell Line	relative viability (Ispinesib + Alpelisib; first compound 0.001 µM)	relative viability (Ispinesib + Alpelisib; first compound 0.003162 µM)	relative viability (Ispinesib + Alpelisib; first compound 0.01 µM)	relative viability (Ispinesib + Alpelisib; first compound 0.03162 µM)	relative viability (Ispinesib + Alpelisib; first compound 0.1 µM)	relative viability (Ispinesib + Trametinib; first compound 0.001 µM)	relative viability (Ispinesib + Trametinib; first compound 0.003162 µM)	relative viability (Ispinesib + Trametinib; first compound 0.01 µM)	relative viability (Ispinesib + Trametinib; first compound 0.03162 µM)	relative viability (Ispinesib + Trametinib; first compound 0.1 µM)	relative viability (Ispinesib + Foretinib; first compound 0.001 µM)	relative viability (Ispinesib + Foretinib; first compound 0.003162 µM)	relative viability (Ispinesib + Foretinib; first compound 0.01 µM)	relative viability (Ispinesib + Foretinib; first compound 0.03162 µM)	relative viability (Ispinesib + Foretinib; first compound 0.1 µM)	relative viability (Linsitinib + Lapatinib; first compound 0.01 µM)	relative viability (Linsitinib + Lapatinib; first compound 0.03162 µM)	relative viability (Linsitinib + Lapatinib; first compound 0.1 µM)	relative viability (Linsitinib + Lapatinib; first compound 0.3162 µM)	relative viability (Linsitinib + Lapatinib; first compound 1 µM)
HARA	0.865	0.806	0.914	0.674	0.371	0.727	0.634	0.816	1.14	0.234	1.18	0.931	0.976	1.04	0.132	0.598	0.746	0.739	0.671	0.329
HCC-15	0.92	0.955	1.06	0.83	0.358	0.262	0.42	0.422	0.381	0.296	1.1	1.02	1.1	0.561	0.188	0.919	0.807	0.883	0.2	0.612
HCC-44	0.805	0.878	1.11	0.822	0.234	1.06	1.05	1.09	1.07	1.11	–	–	–	–	–	1.02	0.859	0.983	0.357	0.63
HCC-78	0.358	0.393	0.38	–	0.268	1.04	0.869	1.2	0.493	0.513	0.558	0.567	0.542	0.525	0.559	0.364	0.651	0.514	0.676	0.542
HCC-366	0.733	0.393	0.535	0.47	0.135	0.386	0.428	0.403	0.411	0.0793	0.895	0.959	0.994	0.913	0.0534	1.14	0.8	1.07	0.326	0.874
HCC-827	0.91	1	0.981	0.922	0.814	0.595	0.516	0.542	0.57	0.59	1.04	1.02	1.05	0.936	0.684	0.208	0.197	0.17	–	0.224
IA-LM	0.742	0.904	1.09	0.11	0.158	–	–	–	–	–	1.21	1.51	1.45	1.06	0.132	0.962	1.02	0.854	0.61	0.437
LCLC-103H	0.986	1.07	1.03	0.833	0.943	0.724	0.7	0.723	0.667	0.654	0.869	1.03	0.95	0.665	0.693	–	–	–	–	–
NCI-H441	0.934	0.848	0.947	0.238	0.215	0.47	0.458	0.284	0.255	0.212	0.926	1	1.19	0.419	0.291	–	–	–	–	–
NCI-H522	–	–	–	–	–	0.814	0.879	0.913	0.788	0.646	–	–	–	–	–	–	–	–	–	–
NCI-H1299	1.11	1.09	1.15	1.17	0.449	–	–	–	–	–	1.14	1.13	1.14	1.09	0.584	0.989	0.89	0.996	0.952	1.01
NCI-H1563	0.972	0.949	0.944	0.838	0.705	–	–	–	–	–	0.895	0.879	0.984	0.845	0.798	0.949	1.05	1.03	0.591	0.856
NCI-H1623	–	–	–	–	–	–	–	–	–	–	0.929	1.03	0.887	0.823	0.62	–	–	–	–	–
NCI-H1648	–	–	–	–	–	0.47	0.559	0.479	0.583	0.496	–	–	–	–	–	–	–	–	–	–
NCI-H1650	–	–	–	–	–	0.726	0.581	0.556	0.417	0.315	1.27	1.44	1.12	0.305	0.273	0.8	0.84	0.777	0.164	0.481
NCI-H1703	0.352	0.322	0.224	0.0938	0.135	–	–	–	–	–	0.331	0.372	0.346	0.16	0.157	1.06	–	1.52	1.38	1.09
NCI-H1792	0.838	0.68	0.692	0.393	0.44	0.42	0.463	0.515	0.398	0.117	–	–	–	–	–	0.903	0.847	0.706	0.667	0.649
NCI-H2342	–	–	–	–	–	0.892	0.819	0.896	0.797	0.722	1.16	1	1	1.09	0.793	–	–	–	–	–
SW 900	–	–	–	–	–	0.914	0.947	1.02	0.924	0.326	0.813	0.76	0.927	0.854	0.204	–	–	–	–	–

Source: the supplement of paper PMC10307832
